Laboratory results as given in the supplement of paper PMC10307832.

Columns and labels:
Assay in all cases: relative viability (nuclei count vs DMSO), 5 days (fraction); higher = more cells survive
Linsitinib + Foretinib = compound: C[C@]1(O)C[C@@H](c2nc(-c3ccc4ccc(-c5ccccc5)nc4c3)c3c(N)nccn32)C1 [Linsitinib] + COc1cc2c(Oc3ccc(NC(=O)C4(C(=O)Nc5ccc(F)cc5)CC4)cc3F)ccnc2cc1OCCCN1CCOCC1 [Foretinib] (partner 0.25 µM)
Outline: (§1)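 A single step with final 0.05% Triton X-100, 1% formaldehyde and 1 ug/ml Hoechst fixed the cells and stained nuclei 5 days after treatment. Lung cancer cell lines in 1536-well plates had been treated by pin tool the day after seeding with one drug alone or a fixed anchor-drug dose plus five library-drug doses (not always all listed) in √10 steps, and nuclei were counted on 4× images. Relative viability is the ratio of nuclei in treated wells to nuclei in vehicle wells, taken as the median of duplicate plates.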

Linsitinib + AZD7762 = compound: C[C@]1(O)C[C@@H](c2nc(-c3ccc4ccc(-c5ccccc5)nc4c3)c3c(N)nccn32)C1 [Linsitinib] + NC(=O)Nc1cc(-c2cccc(F)c2)sc1C(=O)N[C@H]1CCCNC1 [AZD7762] (partner 0.2 µM)
Outline: as §1

Ispinesib + Phenformin = compound: Cc1ccc(C(=O)N(CCCN)[C@@H](c2nc3cc(Cl)ccc3c(=O)n2Cc2ccccc2)C(C)C)cc1 [Ispinesib] + N=C(N)NC(=N)NCCc1ccccc1 [Phenformin] (partner 250 µM)
Outline: as §1

Row | Cell Line | relative viability (Linsitinib + Foretinib; first compound 0.01 µM) | relative viability (Linsitinib + Foretinib; first compound 0.03162 µM) | relative viability (Linsitinib + Foretinib; first compound 0.1 µM) | relative viability (Linsitinib + Foretinib; first compound 0.3162 µM) | relative viability (Linsitinib + Foretinib; first compound 1 µM) | relative viability (Linsitinib + AZD7762; first compound 0.01 µM) | relative viability (Linsitinib + AZD7762; first compound 0.03162 µM) | relative viability (Linsitinib + AZD7762; first compound 0.1 µM) | relative viability (Linsitinib + AZD7762; first compound 0.3162 µM) | relative viability (Linsitinib + AZD7762; first compound 1 µM) | relative viability (Ispinesib + Phenformin; first compound 0.001 µM) | relative viability (Ispinesib + Phenformin; first compound 0.003162 µM) | relative viability (Ispinesib + Phenformin; first compound 0.01 µM) | relative viability (Ispinesib + Phenformin; first compound 0.03162 µM) | relative viability (Ispinesib + Phenformin; first compound 0.1 µM)
1 | NCI-H1793 | 0.629 | 0.765 | 0.643 | 0.602 | 0.681 | 0.577 | 0.559 | 0.39 | 0.352 | 0.169 | 0.375 | 0.357 | 0.448 | 0.278 | 0.133
2 | NCI-H1915 | 1.13 | 1.08 | 1.08 | 0.986 | 0.923 | 0.661 | 0.641 | 0.785 | 0.748 | 0.538 | 0.413 | 0.372 | 0.392 | 0.165 | 0.176
3 | NCI-H1944 | 0.921 | 1.02 | 0.821 | 0.674 | 0.674 | 0.469 | 0.455 | 0.547 | 0.478 | 0.266 | 0.199 | 0.247 | 0.206 | 0.167 | 0.106
4 | NCI-H1975 | 0.848 | 0.869 | 0.87 | 0.87 | 0.781 | 0.697 | 0.673 | 0.685 | 0.685 | 0.562 | 0.448 | 0.412 | 0.458 | 0.164 | 0.11
5 | NCI-H1993 | 0.753 | 0.724 | 0.653 | 0.759 | 0.657 | 0.734 | 0.773 | 0.623 | 0.509 | 0.513 | 0.537 | 0.483 | 0.543 | 0.518 | 0.436
6 | NCI-H2085 | 0.883 | 0.889 | 0.931 | 0.891 | 0.898 | 0.916 | 0.837 | 1.04 | 0.896 | 0.939 | 0.751 | 0.692 | 0.75 | 0.474 | 0.278
7 | NCI-H2087 | 1 | 0.995 | 1.01 | 0.813 | 0.967 | 1.15 | 1.23 | 1.38 | 1.34 | 1.13 | 0.492 | 0.473 | 0.441 | 0.32 | 0.134
8 | NCI-H2126 | 1.11 | 1.28 | 1.05 | 1.06 | 1.06 | 0.972 | 0.997 | 1.05 | 0.871 | 0.887 | 0.516 | 0.531 | 0.533 | 0.433 | 0.263
9 | NCI-H2170 | 0.994 | 1.05 | 0.974 | 0.773 | 0.963 | 0.918 | 0.959 | 0.768 |  | 0.68 | 0.429 | 0.462 | 0.401 | 0.281 | 0.178
10 | NCI-H2342 | 1.06 | 1.05 | 1.06 | 1.01 | 0.959 | 0.405 | 0.544 | 0.526 | 0.454 | 0.414 | 0.671 | 0.634 | 0.685 | 0.523 | 0.378
11 | NCI-H2347 | 0.838 | 0.874 | 0.741 | 0.892 | 0.967 | 0.645 | 0.736 | 0.792 | 0.747 | 0.669 | 0.404 | 0.547 | 0.414 | 0.553 | 0.386
